# Data published in US20240269050A1, “ELECT[…] FOR DELIVERING A COMPOSITION COMPRISING AT LEAST ONE HYDROXY ACID COMPOUND” (L'OREAL, priority 2021, published 2024).
# Details: composition applied with electroporation (Fusion Meso Xpert, ftrain 0.4 Hz, negative polarity) compared with topical application of an identical composition; human skin sample; FIG. 5
# Text: To test the effect of the device, a sample of human skin is peripherally attached to a support, with the counterelectrode of the electroporation device placed between the inner face of the skin and the support. The electrode of the electroporation device is placed in contact with the outer face of the skin sample. The case of the electroporation device is immobilized by a support. The support is placed on an orbital shaker, so that the electrode moves over the surface of the skin.
# The frequency (ftrain) with which the pulse trains follow each other is 0.4 Hz, the duration Ton ranges from 0.5 to 2 seconds, and the chosen polarity is negative, i.e. the electrode is at a negative potential with respect to the counterelectrode. The apparatus is used in the highest energy mode. […] The pulses of frequency fpulse are, for example, of maximum amplitude deltaV, within the pulse train, this amplitude deltaV being less than or equal to 30% of the voltage Vmean, as an absolute value.
# The cosmetic compositions are applied before the apparatus is put in place.
# Firstly, compositions 1 to 3 are applied topically, and secondly, the application of compositions 1 to 3 is combined with electroporation.
# The skin is removed from the experimental system and then analysed to determine the amount of salicylic acid that has penetrated.
smiles,measurement,value
O=C(O)c1ccccc1O [salicylic acid],amount of salicylic acid that has penetrated,much higher
